Data: publication PMC11639629, “Synthesis and Biological Evaluation of Deoxycyclophellitols as Human Retaining β‐Glucosidase Inhibitors” (Chemistry (Weinheim an Der Bergstrasse, Germany), 2024)

Columns and labels:
[1] = target: T1, GBA3 (Homo sapiens, UniProt Q9H227)
T1 sequence (Q9H227 1-469): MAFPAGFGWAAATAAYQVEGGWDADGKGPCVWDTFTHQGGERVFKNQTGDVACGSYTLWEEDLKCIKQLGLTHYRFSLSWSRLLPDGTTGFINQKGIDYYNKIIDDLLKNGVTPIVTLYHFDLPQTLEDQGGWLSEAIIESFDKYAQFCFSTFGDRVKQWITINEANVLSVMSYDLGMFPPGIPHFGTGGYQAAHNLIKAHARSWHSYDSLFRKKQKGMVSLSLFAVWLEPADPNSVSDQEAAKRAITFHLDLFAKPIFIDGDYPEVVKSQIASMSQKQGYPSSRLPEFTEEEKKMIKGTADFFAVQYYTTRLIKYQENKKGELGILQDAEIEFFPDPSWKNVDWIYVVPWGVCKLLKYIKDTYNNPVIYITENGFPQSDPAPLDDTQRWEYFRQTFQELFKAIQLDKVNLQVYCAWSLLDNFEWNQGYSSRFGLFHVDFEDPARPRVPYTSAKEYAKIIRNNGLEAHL
Protocol: (§1) Next, all new compounds were screened on their GBA1/GBA2/GBA3 inhibitory potency in a fluorogenic substrate assay (enzyme‐mediated hydrolysis of the fluorogenic substrate, 4‐methylumbelliferyl β‐D‐glucopyranoside; 4‐MU‐β‐D‐Glu). […] The IC50 values were determined after incubation of each individual compound with either recombinant human GBA1 (rhGBA1) or lysates of HEK293T cells overexpressing GBA2 or GBA3.
(§2) All assays were performed in 96-well plates (Greiner, black, flat-bottomed) at 37 °C. For GBA1, 3.5 ng of rhGBA1 (Imiglucerase,
(§3) Sanofi Genzyme) was dissolved in 12.5 μL McIlvaine buffer (150 mM citric acid-Na2HPO4, pH 5.2), supplemented with 0.1%
(§4) (v/v) Triton X-100, and 0.2% (w/v) sodium taurocholate, 0.1% (w/v) bovine serum albumin (BSA). Lysates of GBA1/GBA2 KO
(§5) HEK293T cells overexpressing GBA2 or GBA3 were prepared by sonication on ice with Polytron PT 1300D son icator
(§6) (Kinematica) in potassium phosphate buffer (25 mM K2HPO4/KH2PO4, pH 6.5, supplemented with 0.1% (v/v) Triton X-100 and protease inhibitor cocktail (EDTA-free, Roche)). The lysates were diluted to 12.5 μL in McIlvaine buffer (150 mM, pH 5.8 for
(§7) GBA2 or pH 6.0 for GBA3) supplemented with 0.1% (w/v) bovine serum albumin (BSA). The enzymes were incubated with 12.5
(§8) μL solution of inhibitors in McIlvaine buffer (150 mM, pH appropriate for each enzyme, final concentration 1% DMSO) at 37 °C
(§9) for 30 minutes (-configured aziridines and ABP 3) or 3 hours (epoxides and -configured aziridines). This was followed by
(§10) incubation of the samples with 100 μL of fluorogenic substrate mixtures for 30 minutes. The substrate mixtures diluted in
(§11) McIlvaine buffer (supplemented with 0.1% (w/v) BSA) at optimal pH for each enzyme were as follows: GBA1, 3.75 mM 4-MU-
(§12) -D-glucopyranoside (Glycosynth) at pH 5.2, supplemented with 0.2% (w/v) sodium taurocholate, 0.1% (v/v) Triton X-100, 0.1%
(§13) (w/v) bovine serum albumin (BSA); GBA2, 4-MU--D-glucopyranoside (3.75 mM) at pH 5.8; GBA3, 4-MU--D-glucopyranoside
(§14) (3.75 mM) at pH 6.0. After stopping the enzyme reaction with 200 μL 1 M NaOH-glycine (pH 10.3), 4-methylumbelliferone
(§15) fluorescence was measured with a fluorimeter LS55 (Perkin Elmer) with λEX 366 nm and λEM 445 nm. Enzyme activities were
(§16) determined by subtraction of background (measured for incubations without enzyme), normalized with enzyme activity of the
(§17) control sample (vehicle incubation) and curve-fitted to inhibitor concentrations using GraphPad Prism 9.0 software by the
(§18) [inhibitor] vs. response - variable slope (four parameters) method to determine IC 50 values.
(§19) values from triplicate or duplicate experiments (n = 3 biological replicates) and error ranges indicate standard deviation (SD).

[2] = system: endogenous GBA1 and overexpressed human GBA2 and GBA3; assay: ABP labeling (ABPP) in lysates of GBA2/GBA3 overexpressing HEK293T cells, selectivity pattern; type: binding; conditions: pH 6.0, 30 min
Protocol: As a negative control, lysates of HEK293T cells with knocked‐out (KO) expression of GBA1 and GBA2 were incubated with a high concentration of each ABP. The observed selectivity patterns of most compounds were in line with the results of the fluorogenic substrate assay except for 50, which labeled GBA1 less potently than expected. […] For instance, besides labeling GBA2 and GBA3 (104.6 kDa and 53.6 kDa respectively), ABP 5 labels three major off‐target proteins (~45 kDa, ~55 kDa, and ~65 kDa), and these bands appear also in the experiments with the other deoxygenated ABPs (Figure 3B). Possibly, the deoxygenated ABPs are more hydrophobic compared to ABPs 1 and 3, causing them to more readily associate with hydrophobic protein patches and subsequently engage in reactions.
described previously.6,16
protease inhibitor cocktail (EDTA-free, Roche)).
The enzymes were incubated with 12.5
The substrate mixtures diluted in
with BODIPY fluorescent ABP 2.

[3] = target: T2, GBA2 (Homo sapiens, UniProt Q9HCG7)
T2 sequence (Q9HCG7 1-927): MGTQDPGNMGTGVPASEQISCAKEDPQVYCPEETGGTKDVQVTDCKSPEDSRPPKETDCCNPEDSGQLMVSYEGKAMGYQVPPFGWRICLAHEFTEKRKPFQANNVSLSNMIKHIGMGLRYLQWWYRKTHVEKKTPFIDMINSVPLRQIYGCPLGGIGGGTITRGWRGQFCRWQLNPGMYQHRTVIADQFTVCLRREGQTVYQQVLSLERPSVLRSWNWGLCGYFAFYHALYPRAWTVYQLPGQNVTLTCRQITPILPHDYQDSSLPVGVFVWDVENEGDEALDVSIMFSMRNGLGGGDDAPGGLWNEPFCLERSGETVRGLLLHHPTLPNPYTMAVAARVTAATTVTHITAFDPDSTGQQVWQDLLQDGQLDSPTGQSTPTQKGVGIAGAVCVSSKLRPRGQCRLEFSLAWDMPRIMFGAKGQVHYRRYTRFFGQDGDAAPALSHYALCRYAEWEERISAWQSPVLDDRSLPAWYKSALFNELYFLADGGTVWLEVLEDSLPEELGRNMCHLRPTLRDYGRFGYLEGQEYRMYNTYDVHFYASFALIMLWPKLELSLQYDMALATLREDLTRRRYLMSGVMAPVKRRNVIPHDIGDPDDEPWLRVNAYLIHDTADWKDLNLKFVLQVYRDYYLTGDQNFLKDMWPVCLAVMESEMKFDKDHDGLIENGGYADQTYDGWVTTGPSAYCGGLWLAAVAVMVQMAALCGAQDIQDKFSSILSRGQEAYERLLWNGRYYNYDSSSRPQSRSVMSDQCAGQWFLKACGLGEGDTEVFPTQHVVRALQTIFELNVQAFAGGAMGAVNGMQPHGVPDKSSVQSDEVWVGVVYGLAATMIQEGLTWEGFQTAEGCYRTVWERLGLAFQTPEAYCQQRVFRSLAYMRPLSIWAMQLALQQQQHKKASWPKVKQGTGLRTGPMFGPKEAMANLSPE
Protocol: as §1, §2, §3, §4, §5, §6, §7, §8, §9, §10, §11, §12, §13, §14, §15, §16, §17, §18, §19

[4] = target: T3, recombinant human GBA1 (rhGBA1) (Homo sapiens, UniProt P04062, R534H); assay: fluorogenic substrate assay (4-MU-β-D-Glu hydrolysis), rhGBA1
T3 sequence (P04062 40-536 R534H): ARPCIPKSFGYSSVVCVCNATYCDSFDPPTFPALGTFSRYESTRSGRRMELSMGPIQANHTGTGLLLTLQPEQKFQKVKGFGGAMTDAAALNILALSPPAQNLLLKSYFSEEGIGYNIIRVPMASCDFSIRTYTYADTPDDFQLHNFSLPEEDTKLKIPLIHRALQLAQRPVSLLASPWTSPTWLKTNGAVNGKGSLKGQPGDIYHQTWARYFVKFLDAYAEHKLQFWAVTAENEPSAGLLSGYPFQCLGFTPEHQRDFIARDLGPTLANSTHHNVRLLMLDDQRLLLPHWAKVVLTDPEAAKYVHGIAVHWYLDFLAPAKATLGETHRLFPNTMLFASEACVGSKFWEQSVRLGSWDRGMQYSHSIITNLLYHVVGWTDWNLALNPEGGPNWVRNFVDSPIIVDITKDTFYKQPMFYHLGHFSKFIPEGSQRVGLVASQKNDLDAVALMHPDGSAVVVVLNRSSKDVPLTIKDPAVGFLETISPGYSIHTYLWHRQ
Protocol: as §1, §2, §3, §4, §5, §6, §7, §8, §9, §10, §11, §12, §13, §14, §15, §16, §17, §18, §19

Row | SMILES | IC50 [1] [nM] | target glucosidases labeled by the ABP [2] | IC50 [3] [nM] | IC50 [4] [nM]
1 | CN1/C(=C/C=C/C=C/C2=[N+](CCCCCC(=O)NCc3cn(CCCCCCCCN4[C@@H]5[C@H](CO)[C@@H](O)[C@H](O)[C@@H](O)[C@@H]54)nn3)c3ccccc3C2(C)C)C(C)(C)c2ccccc21 (stereo partly drawn) [Compound 1] | 31 ± 5 | modifies all three GBAs | 145 ± 26 | 0.54 ± 0.21
2 | CN1/C(=C/C=C/C=C/C2=[N+](CCCCCC(=O)NCc3cn(C[C@@H]4[C@@H](O)[C@H](O)[C@@H](O)[C@@H]5O[C@H]45)nn3)c3ccccc3C2(C)C)C(C)(C)c2ccccc21 [Compound 3] | > 15000 |  | > 15000 | 42 ± 4
3 | CN1/C(=C/C=C/C=C/C2=[N+](CCCCCC(=O)NCc3cn(CCCCCCCCN4[C@@H]5[C@H](CO)C[C@H](O)[C@@H](O)[C@@H]54)nn3)c3ccccc3C2(C)C)C(C)(C)c2ccccc21 (stereo partly drawn) [Compound 4] | 260 ± 60 | label all three target glucosidases | 240 ± 30 | 260 ± 10
4 | CN1/C(=C/C=C/C=C/C2=[N+](CCCCCC(=O)NCc3cn(CCCCCCCCN4[C@@H]5[C@H](CO)C[C@H](O)C[C@@H]54)nn3)c3ccccc3C2(C)C)C(C)(C)c2ccccc21 (stereo partly drawn) [Compound 5] | 1230 ± 80 | GBA2 and, to a lesser extent, GBA3 | 230 ± 10 | 32000 ± 3000
